13 molecules from patent US8591943B2, “Pyrazolo[1,5-a]pyrimidine derivatives as mTOR inhibitors” (Merck Sharp & Dohme Corp., priority 2009, dated 2013) can be followed below.

Assay [1] deals with mTOR enzyme (Homo sapiens, UniProt P42345). Briefly: mTOR Kinase Assay. The assay is classed as biochemical. As to the method: The mTOR assay buffer contains 10 mM hepes (pH 7.4), 50 mM NaCl, 100 μg/ml BSA, 50 mM B-glycerophosphate, 10 mM MnCl2 and 0.5 mM DTT. 20 ng of mTOR enzyme is preincubated with the compound for 10 minutes. 5 μM ATP and 0.1 μM GSTS6K is added. The reaction is incubated for one hour at 30° C. Anti phospho p70S6K (about 1.7 ng/well) and anti GSTXL665 (1:1 Ratio with the substrate GSTS6K) are added after incubating. The plates are read at least 2 hours after adding the anti phospho p70S6K and the anti GSTXL665.

The target in assay [2] is T1, Cyclin E/CDK2 (Homo sapiens, UniProt P24941).
T1 construct: made in house; host or cells: SF9 cells, baculovirus co-infection
Briefly: In Vitro Cyclin E/CDK2 Kinase Assay. The assay is classed as biochemical. An excerpt: Cyclin E was cloned into pVL1393 (Pharmingen, La Jolla, Calif.) by PCR, with the addition of 5 histidine residues at the amino-terminal end to allow purification on nickel resin. The expressed protein was approximately 45 kDa. CDK2 was cloned into pVL1393 by PCR, with the addition of a haemaglutinin epitope tag at the carboxy-terminal end (YDVPDYAS). The expressed protein was approximately 34 kDa in size.
Recombinant baculoviruses expressing cyclin E and CDK2 were co-infected into SF9 cells at an equal multiplicity of infection (MOI=5), for 48 hrs. Cells were harvested by centrifugation at 1000 RPM for 10 minutes, then pellets lysed on ice for 30 minutes in five times the pellet volume of lysis buffer containing 50 mM Tris pH 8.0, 150 mM NaCl, 1% NP40, 1 mM DTT and protease inhibitors (Roche Diagnostics GmbH, Mannheim, Germany). Lysates were spun down at 15000 RPM for 10 minutes and the supernatant retained. 5 mL of nickel beads (for one liter of SF9 cells) were washed three times in lysis buffer (Qiagen GmbH, Germany). Imidazole was added to the baculovirus supernatant to a final concentration of 20 mM, then incubated with the nickel beads for 45 minutes at 4° C. Proteins were eluted with lysis buffer containing 250 mM imidazole. Eluate was dialyzed about 15 hours in 2 liters of kinase buffer containing 50 mM Tris pH 8.0, 1 mM DTT, 10 mM MgCl2, 100 μM sodium orthovanadate and 20% glycerol. Enzyme was stored in aliquots at −70° C.
Cyclin E/CDK2 kinase assays can be performed as described below in low protein binding 96-well plates (Corning Inc, Corning, N.Y.).
The substrate used in these reactions is a biotinylated peptide derived from Histone H1 (from Amersham, UK). The substrate is thawed on ice and diluted to 2 μM in kinase buffer. Test compounds are diluted in 10% DMSO to desirable concentrations. For each kinase reaction, 20 μL of the 50 μg/mL enzyme solution (1 μg of enzyme) and 20 μl of the 2 μM substrate solution are mixed, then combined with 10 μL of diluted compound in each well for testing. The kinase reaction is initiated by addition of 50 μL of 2 μM ATP and 0.1 μCi of ^33P-ATP (from Amersham, UK). The reaction is allowed to run for 1 hour at room temperature, then is stopped by adding 200 μL of stop buffer containing 0.1% Triton X-100, 1 mM ATP, 5 mM EDTA, and 5 mg/mL streptavidine coated SPA beads (from Amersham, UK) for 15 minutes. The SPA beads are then captured onto a 96-well GFIB filter plate (Packard/Perkin Elmer Life Sciences) using a Filtermate universal harvester (Packard/Perkin Elmer Life Sciences.). Non-specific signals are eliminated by washing the beads twice with 2M NaCl then twice with 2 M NaCl with 1% phosphoric acid. The radioactive signal can then be measured using, for example, a TopCount 96 well liquid scintillation counter (from Packard/Perkin Elmer Life Sciences).

The target in assay [3] is T2, recombinant His-CHK1 (Homo sapiens, UniProt O14757).
T2 sequence (O14757 1-265 limits assumed): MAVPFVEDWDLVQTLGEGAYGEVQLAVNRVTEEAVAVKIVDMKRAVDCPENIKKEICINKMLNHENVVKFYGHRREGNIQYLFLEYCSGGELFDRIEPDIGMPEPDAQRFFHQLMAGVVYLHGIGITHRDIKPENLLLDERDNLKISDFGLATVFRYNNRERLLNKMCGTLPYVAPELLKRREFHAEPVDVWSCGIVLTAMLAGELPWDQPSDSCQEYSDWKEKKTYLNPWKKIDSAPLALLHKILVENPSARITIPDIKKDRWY
The assay can be described thus: CHK1 In Vitro Kinase Assay.

Structures are written as SMILES. Where two headings read alike, the source gives them in different places.

As a reminder, the IC50 is the concentration that inhibits the measured activity by half. As to `Nc1c(Br)c(N2CCN3C(=O)CCC3C2)nc2c(-c3cnc4ccccc4c3)cnn12` (stereo not drawn) [Compound 10.26], the results for the IC50 in assay [1] (rated A-F), in assay [2] (rated A-F) and in assay [3] were under 0.1 µM, over 5 µM and over 5 µM, respectively.
For `Nc1c(Br)c(N2CCS(=O)(=O)CC2)nc2c(-c3cnc4ccccc4c3)cnn12` [Compound 10.31], the results for the IC50 in assay [1] (rated A-F), in assay [2] (rated A-F) and in assay [3] were under 0.1 µM, over 5 µM and over 5 µM, respectively.
In the case of `Nc1c(Br)c(N2CCC(CC(=O)O)CC2)nc2c(-c3cnc4ccccc4c3)cnn12` [Compound 10.47], the figures for the IC50 in assay [1], in assay [2] and in assay [3] were 0.0113 µM, 10 µM and 22 µM, respectively.
As for `Nc1c(Br)c(N2CCN3C(=O)NC(=O)C3C2)nc2c(-c3cnc4ccccc4c3)cnn12` (stereo not drawn) [Compound 10.60], the IC50 was under 0.1 µM in assay [1] (rated A-F), over 5 µM in assay [2] (rated A-F) and over 5 µM in assay [3].
`Nc1c(Cl)c(N2CCN3C(=O)NC(=O)C3C2)nc2c(-c3cnc4ccccc4c3)cnn12` (stereo not drawn) [Compound 10.61]: the IC50 in assay [1] (rated A-F) was under 0.1 µM; in assay [2] (rated A-F) it was over 5 µM; in assay [3], over 5 µM.
Turning to `CC(=O)c1c(N2CCS(=O)(=O)CC2)nc2c(-c3cnc4ccccc4c3)cnn2c1N` [Compound 10.62], the results for the IC50 in assay [1] (rated A-F), in assay [2] (rated A-F) and in assay [3] were under 0.1 µM, over 5 µM and over 5 µM, respectively.
As to `Nc1c(Br)c(N2CCC[S+]([O-])CC2)nc2c(-c3cnc4ccccc4c3)cnn12` (stereo not drawn) [Compound 10.63], the results for the IC50 in assay [1] (rated A-F), in assay [2] (rated A-F) and in assay [3] were under 0.1 µM, over 5 µM and over 5 µM, respectively.
For the molecule `Nc1c(Br)c(N2CCCS(=O)(=O)CC2)nc2c(-c3cnc4ccccc4c3)cnn12` [Compound 10.64], the IC50 in assay [1] (rated A-F) was under 0.1 µM; in assay [2] (rated A-F), over 5 µM; in assay [3], over 5 µM.
As to `COC(=O)c1ccc(-c2cc(N)n3ncc(-c4cnc5ccccc5c4)c3n2)cn1` [Compound 11.3], the IC50 was 1 to 5 µM in assay [1] (rated A-F), over 5 µM in assay [2] (rated A-F) and over 5 µM in assay [3].
With `Nc1c(Br)c(CN2CCOCC2)nc2c(-c3cnc4ccccc4c3)cnn12` [Compound 13.2, 6-bromo-5-(morpholinomethyl)-3-(quinolin-3-yl)pyrazolo[1,5-a]pyrimidin-7-amine], the IC50 in assay [1] (rated A-F) was under 0.1 µM; in assay [2] (rated A-F), over 5 µM; in assay [3] it was over 5 µM.
As to `Nc1cc(CN2CCN3C(=O)NC(=O)C3C2)nc2c(-c3cnc4ccccc4c3)cnn12` (stereo not drawn) [Compound 13.3], the half-inhibitory concentration (IC50) in assay [1] (rated A-F) is 0.201 to 0.5 µM; in assay [2] (rated A-F), over 5 µM; in assay [3], over 5 µM.
For `Nc1c(Br)c(CN2CCN3C(=O)NC(=O)C3C2)nc2c(-c3cnc4ccccc4c3)cnn12` (stereo not drawn) [Compound 13.4], the concentration for half-maximal inhibition (IC50) is under 0.1 µM in assay [1] (rated A-F), over 5 µM in assay [2] (rated A-F) and over 5 µM in assay [3].
As for `Nc1c(Br)c(CNC2CCOCC2)nc2c(-c3cnc4ccccc4c3)cnn12` [Compound 13.16], the figures for the IC50 in assay [1] (rated A-F), in assay [2] (rated A-F) and in assay [3] were under 0.1 µM, over 5 µM and over 5 µM, respectively.
